Test system: pathways (Reactome, KEGG, MouseCyc) in mouse tongue
Assay: Pathway enrichment analysis (ConsensusPathDB) of RNA-Seq data
[1] = down-regulated vs. 4-NQO group, KEGG
[2] = down-regulated vs. 4-NQO group, Reactome
[3] = upregulated vs. 4-NQO group, KEGG
[4] = upregulated vs. 4-NQO group, MouseCyc
[5] = upregulated vs. 4-NQO group, Reactome

Procedure: RNA-Seq analysis of mRNA transcriptome. Representative tongue samples were chosen for the RNA-Seq analysis: untreated (n=5), 4-NQO treatment group (n=3), 4N+B (n=4), 4N+C (n=4), and 4N+B+C (n=5). The extraction of total cellular RNA from mouse tissues was carried out using the RNeasy kit (Qiagen). Subsequent RNA preparation steps were carried out at the Genomics Resources Core Facility of WCMC. The measurement of RNA integrity was determined using the Agilent 2100 BioAnalyzer (Agilent Technologies). Samples with RNA integrity number (RIN) values of 10 were used to construct cDNA libraries. mRNA was purified by using pre-prepared Sera-mag Magnetic Oligo(dT) Beads from Illumina Inc. (SanDiego, Calif.), subjected to thermal fragmentation, and reverse transcribed to first strand cDNA. Following the removal of mRNA strands by RNaseH, first strand cDNAs were used as templates to produce double strand cDNAs, and the overhangs resulting from fragmentation were repaired to blunt ends. An ‘A’ base was added to the 3′ end of cDNAs and subsequently the cDNAs were ligated to Illumina paired end (PE) adaptors that have a single ‘T’ base overhang at their 3′ end. The cDNA-adaptor libraries were purified and enriched by 15 cycles of PCR. The enriched libraries were hybridized to a flow cell and amplified, resulting in ultra-high density flow cells with millions of clusters, each containing about 1,000 copies of the templates. The double stranded cDNA-adaptors were denatured and converted into single strand DNA, and then the template cDNAs were amplified one more time isothermally to produce surface-bound colonies. The clonal DNA clusters were linearized, free 3′ OH ends blocked, denatured, hybridized to sequencing primers, and sequenced. The sequencing was conducted by running 4 samples per lane with 51 pair-end cycles on the HISeq2000/1000. The Sequencing-by-Synthesis process used reversible terminators and a DNA polymerase modified to accept reversible terminator nucleotides. After each synthesis cycle the fluorescence of clusters was imaged with high sensitivity. Then the sequencing images were analyzed in three steps, image analysis, base calling, and sequence analysis. The Tophat software was used to align raw sequencing reads against the UCSC mm9 mouse reference genome, and Cufflinks software was employed to measure transcript abundances in the unit of fragments per kilobase of exon model per million mapped reads (FPKM), as well as to perform statistical analysis on the changes in gene expression. The heat maps for genes of interest were generated by R package software.

`O=C(O)c1ccc(-c2ccc3cc(O)c(C45CC6CC(CC(C6)C4)C5)cc3c2)cc1` [CD1530] was tested, and the “cytochrome P450 enzymes (pathway analysis)” value (compared to the 4-NQO group) was “significantly elevated”, the “candidates contained, pathway Cell cycle-Mus musculus (mouse)” value [1] was 23 (18.1%) and the “candidates contained, pathway DNA replication-Mus musculus (mouse)” value [1] was 9 (25.0%). The “candidates contained, pathway ECM-receptor interaction-Mus musculus (mouse)” value [1] was 13 (15.1%), the “candidates contained, pathway Pathways in cancer-Mus musculus (mouse)” value [1] was 27 (8.4%) and the “candidates contained, pathway Small cell lung cancer-Mus musculus (mouse)” value [1] was 13 (14.9%). The “candidates contained, pathway p53 signaling pathway-Mus musculus (mouse)” value [1] was 12 (17.4%), the “candidates contained, pathway Activation of ATR in response to replication stress” value [2] was 11 (28.9%) and the “candidates contained, pathway Activation of the pre-replicative complex” value [2] was 11 (37.9%). For the same compound, the “candidates contained, pathway Assembly of the pre-replicative complex” value [2] was 9 (40.9%), the “candidates contained, pathway Cell Cycle” value [2] was 54 (17.8%) and the “candidates contained, pathway Cell Cycle Checkpoints” value [2] was 19 (24.7%). For the same compound, the “candidates contained, pathway Cell Cycle, Mitotic” value [2] was 52 (19.4%), the “candidates contained, pathway Cyclin A/B1 associated events during G2/M transition” value [2] was 6 (37.5%) and the “candidates contained, pathway Cyclin B2 mediated events” value [2] was 4 (80.0%). For the same compound, the “candidates contained, pathway DNA Replication” value [2] was 41 (26.1%), the “candidates contained, pathway DNA Replication Pre-Initiation” value [2] was 12 (33.3%) and the “candidates contained, pathway DNA strand elongation” value [2] was 8 (25.8%). The “candidates contained, pathway G1/S Transition” value [2] was 14 (22.6%), the “candidates contained, pathway G2/M Checkpoints” value [2] was 14 (31.1%) and the “candidates contained, pathway M Phase” value [2] was 27 (27.3%). The “candidates contained, pathway M/G1 Transition” value [2] was 12 (33.3%), the “candidates contained, pathway Mitotic G1-G1/S phases” value [2] was 16 (21.9%) and the “candidates contained, pathway Mitotic M-M/G1 phases” value [2] was 39 (28.9%). The “candidates contained, pathway Mitotic Prometaphase” value [2] was 26 (27.4%), the “candidates contained, pathway Orc1 removal from chromatin” value [2] was 8 (28.6%) and the “candidates contained, pathway Regulation of DNA replication” value [2] was 10 (33.3%). The “candidates contained, pathway Removal of licensing factors from origins” value [2] was 10 (33.3%), the “candidates contained, pathway S Phase” value [2] was 12 (17.4%) and the “candidates contained, pathway Switching of origins to a post-replicative state” value [2] was 8 (28.6%). For the same compound, the “candidates contained, pathway Synthesis of DNA” value [2] was 11 (20.4%), the “candidates contained, pathway Unwinding of DNA” value [2] was 6 (54.5%) and the “candidates contained, pathway Arachidonic acid metabolism-Mus musculus (mouse)” value [3] was 25 (26.6%). For the same compound, the “candidates contained, pathway Ascorbate and aldarate metabolism-Mus musculus (mouse)” value [3] was 11 (42.3%), the “candidates contained, pathway Bile secretion-Mus musculus (mouse)” value [3] was 23 (32.4%) and the “candidates contained, pathway Biosynthesis of unsaturated fatty acids-Mus musculus (mouse)” value [3] was 10 (40.0%). The “candidates contained, pathway Complement and coagulation cascades-Mus musculus (mouse)” value [3] was 38 (50.0%), the “candidates contained, pathway Drug metabolism-cytochrome P450-Mus musculus (mouse)” value [3] was 52 (59.8%) and the “candidates contained, pathway Drug metabolism-other enzymes-Mus musculus (mouse)” value [3] was 22 (39.3%). The “candidates contained, pathway Fatty acid metabolism-Mus musculus (mouse)” value [3] was 13 (26.5%), the “candidates contained, pathway Glycine, serine and threonine metabolism-Mus musculus (mouse)” value [3] was 12 (30.8%) and the “candidates contained, pathway Linoleic acid metabolism-Mus musculus (mouse)” value [3] was 24 (53.3%). The “candidates contained, pathway Maturity onset diabetes of the young-Mus musculus (mouse)” value [3] was 11 (42.3%), the “candidates contained, pathway Metabolic pathways-Mus musculus (mouse)” value [3] was 160 (13.4%) and the “candidates contained, pathway Metabolism of xenobiotics by cytochrome P450-Mus musculus (mouse)” value [3] was 50 (55.6%). For the same compound, the “candidates contained, pathway PPAR signaling pathway-Mus musculus (mouse)” value [3] was 24 (29.6%), the “candidates contained, pathway Pentose and glucuronate interconversions-Mus musculus (mouse)” value [3] was 11 (34.4%) and the “candidates contained, pathway Peroxisome-Mus musculus (mouse)” value [3] was 18 (22.8%). For the same compound, the “candidates contained, pathway Primary bile acid biosynthesis-Mus musculus (mouse)” value [3] was 8 (50.0%), the “candidates contained, pathway Propanoate metabolism-Mus musculus (mouse)” value [3] was 11 (34.4%) and the “candidates contained, pathway Retinol metabolism-Mus musculus (mouse)” value [3] was 42 (53.2%). For the same compound, the “candidates contained, pathway Serotonergic synapse-Mus musculus (mouse)” value [3] was 24 (17.3%), the “candidates contained, pathway Steroid hormone biosynthesis-Mus musculus (mouse)” value [3] was 19 (34.5%) and the “candidates contained, pathway Tryptophan metabolism-Mus musculus (mouse)” value [3] was 16 (36.4%). For the same compound, the “candidates contained, pathway Tyrosine metabolism-Mus musculus (mouse)” value [3] was 11 (28.2%), the “candidates contained, pathway beta-Alanine metabolism-Mus musculus (mouse)” value [3] was 10 (33.3%) and the “candidates contained, pathway bupropion degradation” value [4] was 29 (74.4%). For the same compound, the “candidates contained, pathway nicotine degradation II” value [4] was 41 (65.1%), the “candidates contained, pathway nicotine degradation III” value [4] was 35 (63.6%) and the “candidates contained, pathway Activation of C3 and C5” value [5] was 5 (83.3%). For the same compound, the “candidates contained, pathway Bile acid and bile salt metabolism” value [5] was 19 (50.0%), the “candidates contained, pathway Biological oxidations” value [5] was 64 (40.5%) and the “candidates contained, pathway Chylomicron-mediated lipid transport” value [5] was 11 (61.1%). The “candidates contained, pathway Common Pathway” value [5] was 9 (69.2%), the “candidates contained, pathway Complement cascade” value [5] was 11 (39.3%) and the “candidates contained, pathway Cytochrome P450-arranged by substrate type” value [5] was 42 (51.2%). For the same compound, the “candidates contained, pathway Formation of Fibrin Clot (Clotting Cascade)” value [5] was 18 (52.9%), the “candidates contained, pathway Gamma-carboxylation of protein precursors” value [5] was 6 (66.7%) and the “candidates contained, pathway Gamma-carboxylation, transport, and amino-terminal cleavage of proteins” value [5] was 6 (60.0%). The “candidates contained, pathway HDL-mediated lipid transport” value [5] was 9 (52.9%), the “candidates contained, pathway Intrinsic Pathway” value [5] was 10 (50.0%) and the “candidates contained, pathway Lipid digestion, mobilization, and transport” value [5] was 18 (36.7%). The “candidates contained, pathway Lipoprotein metabolism” value [5] was 16 (51.6%), the “candidates contained, pathway Metabolism” value [5] was 181 (18.6%) and the “candidates contained, pathway Metabolism of amino acids and derivatives” value [5] was 34 (27.4%). The “candidates contained, pathway Metabolism of lipids and lipoproteins” value [5] was 57 (21.8%), the “candidates contained, pathway Miscellaneous substrates” value [5] was 10 (55.6%) and the “candidates contained, pathway Phase 1-Functionalization of compounds” value [5] was 51 (51.5%). The “candidates contained, pathway Phase II conjugation” value [5] was 14 (23.3%), the “candidates contained, pathway Phenylalanine and tyrosine catabolism” value [5] was 7 (87.5%) and the “candidates contained, pathway Platelet degranulation” value [5] was 19 (29.7%). For the same compound, the “candidates contained, pathway Recycling of bile acids and salts” value [5] was 7 (50.0%), the “candidates contained, pathway Removal of aminoterminal propeptides from gamma-carboxylated proteins” value [5] was 6 (66.7%) and the “candidates contained, pathway Response to elevated platelet cytosolic Ca2+” value [5] was 19 (27.1%). The “candidates contained, pathway Synthesis of bile acids and bile salts” value [5] was 15 (55.6%), the “candidates contained, pathway Synthesis of bile acids and bile salts via 7alpha-hydroxycholesterol” value [5] was 15 (65.2%) and the “candidates contained, pathway Synthesis of bile acids and bile salts via 24-hydroxycholesterol” value [5] was 11 (61.1%). The “candidates contained, pathway Synthesis of bile acids and bile salts via 27-hydroxycholesterol” value [5] was 8 (57.1%), the “candidates contained, pathway Terminal pathway of complement” value [5] was 5 (83.3%) and the “candidates contained, pathway Transport of gamma-carboxylated protein precursors from the ER to the Golgi apparatus” value [5] was 6 (75.0%). The “candidates contained, pathway Xenobiotics” value [5] was 31 (81.6%).

From patent US10265378B2, “Combination therapy for head and neck cancer” (Cornell University, priority 2014, dated 2019)
